System: rat platelet aggregation
Experiment: In vitro inhibition of rat platelet aggregation (Born and Cross method)
Format: cell-based
Details: epinephrine as aggregating agent
Experimental: Platelet aggregation was measured according to the method of Born and Cross (8) by using rat and human plasma.

Structure (SMILES): CNC[C@H](O)c1ccc(O)c(O)c1 [epinephrine, reference compound]
- influence on rat platelets: no

— US4096252A, “4-Trifluoromethylbenzoic acid derivatives as thromboembolic agents” (priority 1976, dated 1978)
